Data reported in US20240174655A1, “INDAZOLE DERIVATIVES AS ANTAGONISTS OF THE MUSCARINIC ACETYLCHOLINE RECEPTOR M4” (Vanderbilt University, priority 2021, published 2024).

Target: T1, Human M4 (Homo sapiens, UniProt P08173)
T1 construct: expressed in transfected cells; host or cells: CHO-K1 (Chinese hamster ovary, ATCC), stably expressing M4 and Gqi5
T1 sequence (P08173 1-479): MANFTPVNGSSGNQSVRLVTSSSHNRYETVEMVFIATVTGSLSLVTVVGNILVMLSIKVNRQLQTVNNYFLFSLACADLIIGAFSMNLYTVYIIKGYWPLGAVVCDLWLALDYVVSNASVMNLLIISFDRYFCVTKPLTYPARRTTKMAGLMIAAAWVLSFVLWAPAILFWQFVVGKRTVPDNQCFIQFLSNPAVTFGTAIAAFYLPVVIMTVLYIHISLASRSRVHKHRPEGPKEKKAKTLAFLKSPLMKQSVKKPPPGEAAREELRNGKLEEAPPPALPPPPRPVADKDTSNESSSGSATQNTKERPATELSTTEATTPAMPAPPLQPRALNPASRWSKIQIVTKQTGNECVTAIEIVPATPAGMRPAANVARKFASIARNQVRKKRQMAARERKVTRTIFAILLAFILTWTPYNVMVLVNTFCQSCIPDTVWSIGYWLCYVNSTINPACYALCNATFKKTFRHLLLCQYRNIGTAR
Experiment: mAChR M4 cell-based functional assay (calcium flux, EC80 acetylcholine response)
Conditions: M4/Gqi5/CHO-K1 cells; for remaining activity at 30 µM: % ACh maximum at 30 μM, read-out: Human M4 Emin (% ACh maximum at 30 μM); for IC50: decrease of the response to an EC80 concentration of acetylcholine, read-out: Human M4 IC50
Procedure: Human or rat M4 cDNA, along with the chimeric G protein Gqi5, were transfected into Chinese hamster ovary (CHO-K1) cells purchased from the American Type Culture Collection using Lipofectamine2000. M4/Gqi5/CHO cells were grown in Ham's F-12 medium containing […] heat-inactivated fetal bovine serum (FBS), 20 mM HEPES, 500 μg/mL G418 sulfate, and 200 μg/mL Hygromycin B.
For high throughput measurement of agonist-evoked increases in intracellular calcium, CHO-K1 cells stably expressing muscarinic receptors were plated in growth medium lacking G418 and hygromycin at 15,000 cells/20 μL/well in Greiner 384-well black-walled, tissue culture (TC)-treated, clear-bottom plates (VWR). Cells were incubated overnight at 37° C. and 500 CO2. […] Compound master plates were formatted in a 10 point concentration-response curve (CRC) format (1:3 dilutions) in 100% DMSO with a starting concentration of 10 or 1 mM using a BRAVO liquid handler (Agilent). Test compound CRCs were then transferred to daughter plates (240 nL) using the Echo acoustic plate reformatter (Labcyte, Sunnyvale, CA) and then diluted into assay buffer (40 μL) to a 2× stock using a Thermo Fisher Combi (Thermo Fisher Scientific, Waltham, MA).
Calcium flux was measured using the Functional Drug Screening System (FDSS) 6000 or 7000 (Hamamatsu Corporation, Tokyo, Japan) as an increase in the fluorescent static ratio. Compounds were applied to cells (20 μL, 2×) using the automated system of the FDSS at 2 seconds into the protocol and the data were collected at 1 Hz. […] Agonist activity was analyzed as a concentration-dependent increase in calcium mobilization upon compound addition. Positive allosteric modulator activity was analyzed as a concentration-dependent increase in the EC20 acetylcholine response. Antagonist activity was analyzed as a concentration-dependent decrease in the EC80 acetylcholine response; for the purposes of the tables herein, an IC50 (inhibitory concentration 50) was calculated as a concentration-dependent decrease of the response elicited by an EC80 concentration of acetylcholine. Concentration-response curves were generated using a four-parameter logistical equation in XLFit curve fitting software (IDBS, Bridgewater, NJ) for Excel (Microsoft, Redmond, WA) or Prism (GraphPad Software, Inc., San Diego, CA) or the Dotmatics software platform (Dotmatics, Bishop's Stortford, UK).
Compounds were synthesized as described above.

| remaining activity at 30 µM [%] | IC50 [nM] | Compound |
| --- | --- | --- |
| 3 | 2.7 | Cc1cc2nn(C)cc2cc1-c1ccc(N[C@H]2C[C@@H]3CN(CC4CCOCC4)C[C@@H]3C2)nn1 [compound 1, (3aR,5s,6aS)-N-(6-(2,6-dimethyl-2H-indazol-5-yl)pyridazin-3-yl)-2-((tetrahydro-2H-pyran-4-yl)methyl)octahydrocyclopenta[c]pyrrol-5-amine] |
| 3 | 2.2 | Cc1c(-c2ccc(N[C@H]3C[C@@H]4CN(Cc5ccccn5)C[C@@H]4C3)nn2)ccc2nn(C)cc12 [compound 4, (3aR,5s,6aS)-N-(6-(2,4-dimethyl-2H-indazol-5-yl)pyridazin-3-yl)-2-(pyridin-2-ylmethyl)octahydrocyclopenta[c]pyrrol-5-amine] |
| 3 | 130 | [2H]C([2H])([2H])N(c1cc(C(F)(F)F)c(-c2ccc3nn(C)cc3c2C)nn1)[C@H]1C[C@@H]2CN(CC3CCOCC3)C[C@@H]2C1 [compound 5, (3aR,5s,6aS)-N-(6-(2,4-dimethyl-2H-indazol-5-yl)-5-(trifluoromethyl)pyridazin-3-yl)-N-(methyl-d3)-2-((tetrahydro-2H-pyran-4-yl)methyl)octahydrocyclopenta[c]pyrrol-5-amine] |
| 3 | 0.59 | [2H]C([2H])(C1CCOCC1)N1C[C@H]2C[C@H](Nc3ccc(-c4ccc5nn(C)cc5c4C)nn3)C[C@H]2C1 [compound 6, (3aR,5s,6aS)-N-(6-(2,4-dimethyl-2H-indazol-5-yl)pyridazin-3-yl)-2-((tetrahydro-2H-pyran-4-yl)methyl-d2)octahydrocyclopenta[c]pyrrol-5-amine] |
| 10 | 1.1 | [2H]C([2H])(C1CCOCC1)N1C[C@H]2C[C@H](Nc3ccc(-c4ccc5nn(C)cc5c4C(F)(F)F)nn3)C[C@H]2C1 [compound 8, (3aR,5s,6aS)-N-(6-(2-methyl-4-(trifluoromethyl)-2H-indazol-5-yl)-pyridazin-3-yl)-2-((tetrahydro-2H-pyran-4-yl)methyl-d2)octahydrocyclopenta[c]pyrrol-5-amine] |
| 3 | 0.37 | [2H]C([2H])(C1CCOCC1)N1C[C@H]2C[C@H](Nc3ccc(-c4ccc5nn(C([2H])([2H])[2H])cc5c4C)nn3)C[C@H]2C1 [compound 9, (3aR,5s,6aS)-N-(6-(4-methyl-2-(methyl-d3)-2H-indazol-5-yl)pyridazin-3-yl)-2-((tetrahydro-2H-pyran-4-yl)methyl-d2)octahydrocyclopenta[c]pyrrol-5-amine] |
| 2 | 0.36 | [2H]C([2H])([C@@H]1CCCCO1)N1C[C@H]2C[C@H](Nc3ccc(-c4ccc5nn(C)cc5c4C)nn3)C[C@H]2C1 [compound 12, (3aR,5s,6aS)-N-(6-(2,4-dimethyl-2H-indazol-5-yl)pyridazin-3-yl)-2-(((S)-tetrahydro-2H-pyran-2-yl)methyl-d2)octahydrocyclopenta[c]pyrrol-5-amine] |

Continued, compound first:

| Compound | remaining activity at 30 µM [%] | IC50 [nM] |
| --- | --- | --- |
| Cc1c(-c2ccc(N[C@H]3C[C@@H]4CN(CC5CCOCC5)C[C@@H]4C3)nn2)ccc2nn(C)cc12 [compound 2, (3aR,5s,6aS)-N-(6-(2,4-dimethyl-2H-indazol-5-yl)pyridazin-3-yl)-2-((tetrahydro-2H-pyran-4-yl)methyl)octahydrocyclopenta[c]pyrrol-5-amine] | 4 | 0.41 |
| [2H][C@@]1(Nc2ccc(-c3ccc4nn(C)cc4c3C)nn2)C[C@H]2CN(CC3CCOCC3)C[C@H]2C1 [compound 3, (3aR,5s,6aS)-N-(6-(2,4-dimethyl-2H-indazol-5-yl)pyridazin-3-yl)-2-((tetrahydro-2H-pyran-4-yl)methyl)octahydrocyclopenta[c]pyrrol-5-d-5-amine] | 2 | 0.33 |
| Cn1cc2c(C(F)(F)F)c(-c3ccc(N[C@H]4C[C@@H]5CN(CC6CCOCC6)C[C@@H]5C4)nn3)ccc2n1 [compound 7, (3aR,5s,6aS)-N-(6-(2-methyl-4-(trifluoromethyl)-2H-indazol-5-yl)pyridazin-3-yl)-2-((tetrahydro-2H-pyran-4-yl)methyl)octahydrocyclopenta[c]pyrrol-5-amine] | 3 | 1.5 |
| [2H]C([2H])(C1CCOCC1)N1C[C@H]2C[C@H](Nc3ccc(-c4ccc5nn(C(F)F)cc5c4C)nn3)C[C@H]2C1 [compound 10, (3aR,5s,6aS)-N-(6-(2-(difluoromethyl)-4-methyl-2H-indazol-5-yl)pyridazin-3-yl)-2-((tetrahydro-2H-pyran-4-yl)methyl-d2)octahydrocyclopenta[c]pyrrol-5-amine] | 2 | 0.36 |
| [2H]C([2H])([C@H]1CCCCO1)N1C[C@H]2C[C@H](Nc3ccc(-c4ccc5nn(C)cc5c4C)nn3)C[C@H]2C1 [compound 11, (3aR,5s,6aS)-N-(6-(2,4-dimethyl-2H-indazol-5-yl)pyridazin-3-yl)-2-(((R)-tetrahydro-2H-pyran-2-yl)-methyl-d2)octahydrocyclopenta[c]pyrrol-5-amine] | 2 | 0.41 |
| [2H]C([2H])([C@@H]1CCCOC1)N1C[C@H]2C[C@H](Nc3ccc(-c4ccc5nn(C)cc5c4C)nn3)C[C@H]2C1 [compound 13, (3aR,5s,6aS)-N-(6-(2,4-dimethyl-2H-indazol-5-yl)pyridazin-3-yl)-2-(((S)-tetrahydro-2H-pyran-3-yl)methyl-d2)octahydrocyclopenta[c]pyrrol-5-amine] | 4 | 0.49 |
| [2H]C([2H])([C@H]1CCCOC1)N1C[C@H]2C[C@H](Nc3ccc(-c4ccc5nn(C)cc5c4C)nn3)C[C@H]2C1 [compound 14, (3aR,5s,6aS)-N-(6-(2,4-dimethyl-2H-indazol-5-yl)pyridazin-3-yl)-2-(((R)-tetrahydro-2H-pyran-3-yl)methyl-d2)octahydrocyclopenta-[c]pyrrol-5-amine] | 3 | 0.79 |
| [2H]C([2H])([C@H]1COCCO1)N1C[C@H]2C[C@H](Nc3ccc(-c4ccc5nn(C)cc5c4C)nn3)C[C@H]2C1 [compound 15, (3aR,5s,6aS)-2-(((S)-1,4-dioxan-2-yl)-methyl-d2)-N-(6-(2,4-dimethyl-2H-indazol-5-yl)-pyridazin-3-yl)octahydrocyclopenta[c]pyrrol-5-amine] | 3 | 0.42 |
| [2H]C([2H])([C@@H]1COCCO1)N1C[C@H]2C[C@H](Nc3ccc(-c4ccc5nn(C)cc5c4C)nn3)C[C@H]2C1 [compound 16, (3aR,5s,6aS)-2-(((R)-1,4-dioxan-2-yl)-methyl-d2)-N-(6-(2,4-dimethyl-2H-indazol-5-yl)pyridazin-3-yl)octahydrocyclopenta[c]pyrrol-5-amine] | 3 | 8.9 |
| [2H]C([2H])(C1CCOCC1(C)C)N1C[C@H]2C[C@H](Nc3ccc(-c4ccc5nn(C)cc5c4C)nn3)C[C@H]2C1 (stereo partly drawn) [compound 17, (3aR,5s,6aS)-N-(6-(2,4-dimethyl-2H-indazol-5-yl)pyridazin-3-yl)-2-((3,3-dimethyltetrahydro-2H-pyran-4-yl)methyl-d2)octahydrocyclopenta[c]pyrrol-5-amine] | 3 | 0.9 |
